Measurements: US6864396B2, “Substituted pentacene semiconductors” (3M Innovative Properties Company, priority 2001, dated 2005)

Assay type: physicochemical
Conditions: for Weight %: solubility in THF, 25° C., calculated with extinction coefficient of pentacene
Procedure: The solubility of several alkyl substituted pentacenes in tetrahydrofuran (THF) was compared with that of pentacene. Samples were prepared by adding excess alkyl substituted pentacene compounder pentacene compound to newly opened THF and sonicating for 20-30 seconds to facilitate dissolution. All handling of the solutions and solvent was done in a nitrogen-purged environment. Solutions were transferred to a 1 cm cuvette with a disposable pipette. The cuvette was then placed in a spectrophotometer for 5 minutes for temperature equilibration (25° C.). Absorbance measurements were made using an Hewlett Packard 8453 photodiode array spectrophotometer over a range of wavelengths from 200 to 1100 nm. THF was used as a reference blank. All of the spectrographs were corrected for baseline differences, which possibly resulted from excess compound in suspension. In calculating the concentration and weight % values, the extinction coefficient of pentacene that is, 10^3.76 at 577 nm was used for all substituted pentacenes.

Row | SMILES | Concentration [µM] | Solubility in THF compared with pentacene, 2,9-dimethylpentacene, 2,10-dimethylpentacene, 2,9-didodecylpentacene | Weight % | Absorbance at 577 nm | Relative Absorbance
1 | CC(CCc1ccc2cc3cc4cc5cc(CCC(C)CC(C)(C)C)ccc5cc4cc3cc2c1)CC(C)(C)C (centres unmarked) [2,9-di(3,5,5-trimethylhexyl)pentacene, 2,9-Di(3,5,5-trimethylhexyl)pentacene] | 3350 | significantly more soluble | 2.00 × 10^−1 Weight % | – | –
2 | CCCCCCCCCCCCc1ccc2cc3cc4cc5cc(CCCCCCCCCCCC)ccc5cc4cc3cc2c1 [2,9-didodecylpentacene, 2,9-Didodecylpentacene] | 10.7 | – | 7.38 × 10^−4 Weight % | 0.061 | 0.420
3 | CCCCCCc1ccc2cc3cc4cc5cc(CCCCCC)ccc5cc4cc3cc2c1 [2,9-dihexylpentacene, 2,9-Dihexylpentacene] | 172 | significantly more soluble | 8.62 × 10^−3 Weight % | 0.987 | 6.752
4 | Cc1ccc2cc3cc4cc5cc(C)ccc5cc4cc3cc2c1 [2,9-dimethylpentacene, 2,9-Dimethylpentacene] | 3.59 | – | 1.64 × 10^−4 Weight % | 0.021 | 0.142
5 | CCCCCCCCCc1ccc2cc3cc4cc5cc(CCCCCCCCC)ccc5cc4cc3cc2c1 [2,9-dinonylpentacene, 2,9-Dinonylpentacene] | 243 | significantly more soluble | 1.45 × 10^−2 Weight % | 1.398 | 9.562
6 | Cc1ccc2cc3cc4cc5ccc(C)cc5cc4cc3cc2c1 [2,10-dimethylpentacene, 2,10-Dimethylpentacene] | 6.06 | – | 2.77 × 10^−4 Weight % | 0.035 | 0.239
7 | c1ccc2cc3cc4cc5ccccc5cc4cc3cc2c1 [pentacene] | 25.4 | – | 7.95 × 10^−4 Weight % | 0.146 | 1.000
